# Measured values taken from US9290496B2, “Purine derivatives” (PFIZER INC., priority 2013, dated 2016).
# Legend:
# Assay type in all cases: cell-based
# [1] = target: T1, EGFR L858R+T790M, endogenous (NCI-H1975) (Homo sapiens, UniProt P00533, L858R/T790M); test: pEGFR Y1068 ELISA assay, NCI-H1975 cells; conditions: inhibition of phosphorylation of EGFR at Tyr1068; NCI-H1975 NSCLC cells; 2 hr compound incubation
# T1 construct: NCI-H1975 (EGFR L858R+T790M, endogenous); host or cells: NCI-H1975
# Method: (§1) Phosphorylation of EGFR at Y1068 was measured by PathScan® Phospho-EGF Receptor (Try1068) Sandwich ELISA kit (#7240, Cell Signaling Technology®, Danvers, Mass.). The PathScan® Phospho-EGF Receptor (Tyr1068) Sandwich ELISA Kit is a solid phase sandwich enzyme-linked immunosorbent assay (ELISA) that detects endogenous levels of phospho-EGF Receptor (Tyr1068) protein. […] All cells were cultured according to ATCC recommendations. A549, NCI-H1975, PC9, and NCI-H3255 cells were grown in RPMI media (Invitrogen, Carlsbad, Calif.) supplemented with 10% FBS (Sigma, St Louis, Mo.), and with 1% Penn/Strep (Invitrogen). PC9-DRH cells were grown in RPMI with 10% FBS and 1 μM dacomitinib.
# (§2) Cells were plated at 40,000/well in complete culture media (50 μL/well) on the bottom of clear tissue culture treated microtiter plates (#3595, Corning Inc, Corning, N.Y.) and allowed to adhere overnight at 37° C., 5% CO2. The following day, compound dilution plates were prepared in 96 well clear V-bottom 0.5 mL polypropylene block plates (#3956, Corning, Inc). Each compound was prepared as a DMSO stock solution (10 mM). Compounds were tested in duplicate on each plate, with an 11-point serial dilution curve (1:3 dilution). Compound treatment (50 μL) was added from the compound dilution plate to the cell plate. […] Plates were then incubated for 2 hr at 37° C., 5% CO2. For A549 (EGFR wildtype) assay, cells were plated in full-serum (10%) media for 24 hr prior to compound treatment; cells were treated in full serum media as described and then stimulated for 10 min with EGF (40 ng/mL/starvation media, Invitrogen). Immediately prior to the end of the incubation, ice-cold lysis buffer was prepared (1× Cell Lysis Buffer (#9803, Cell Signaling Technology), 1 mM sodium orthovanadate (Na3VO4, #96508, Sigma), 1 mM phenylmethanesulfonyl fluoride (PMSF, 52332, CalBiochem/EMD Chemicals), complete Mini EDTA-free Protease Inhibitor Cocktail Tablet (1 tablet/10 mL, #11836170001, Roche, Indianapolis, Ind.), and PhosSTOP Phosphatase Inhibitor Cocktail Tablet (1 tablet/10 mL, #04906837001, Roche) in pure water. At the end of 2 hr, media was flicked off and cells were washed once with ice-cold 1 mM Na3VO4 in PBS (100 μL/well, Invitrogen). The wash was then flicked off and ice-cold lysis buffer was added to the cells (50 μL/well). The plate was shaken for 20-30 min at 4° C. to completely lyse the cells. Sample diluent (50 μL/well) was added to the ELISA plate, and the lysate (50 μL) was diluted into the sample diluent in each well of the ELISA plate. Plates were sealed and incubated overnight at 4° C. with shaking. The next day, wells were washed four times with 1× Wash Buffer; plates were taped on lint-free paper after the final wash prior to adding Add Detection Antibody (green, 100 μL/well) to each well and incubating for 1 hr at 37° C. After incubation, wells were washed as described. HRP-Linked secondary antibody (red, 100 μL/well) was added to each well and incubated for 30 min at 37° C. After incubation, the wells were washed as described. TMB Substrate (100 μL/well) was added to each well and the plate incubated for 10 min at 37° C. or 30 min at rt maximum. Stop Solution (100 μL/well) was added to each well at the end of the incubation and plates were shaken gently for a few seconds. Absorbance was read at 450 nm within 30 min after addition of Stop Solution on a PerkinElmer EnVision Excite Multilabel Reader Method for Absorbance or on a Molecular Devices SpectraMax^384 Reader for absorbance. Data were analyzed using a four-parameter fit in Microsoft Excel.
# [2] = target: T2, EGFR del (PC9) (Homo sapiens, UniProt P00533, DEL746-750); test: pEGFR Y1068 ELISA assay, PC9 cells; conditions: inhibition of phosphorylation of EGFR at Tyr1068; PC9 NSCLC cells; 2 hr compound incubation
# T2 construct: detects endogenous levels of phospho-EGF Receptor (Tyr1068) protein; host or cells: PC9
# T2 sequence (P00533 with tags, fused parts or gaps DEL746-750): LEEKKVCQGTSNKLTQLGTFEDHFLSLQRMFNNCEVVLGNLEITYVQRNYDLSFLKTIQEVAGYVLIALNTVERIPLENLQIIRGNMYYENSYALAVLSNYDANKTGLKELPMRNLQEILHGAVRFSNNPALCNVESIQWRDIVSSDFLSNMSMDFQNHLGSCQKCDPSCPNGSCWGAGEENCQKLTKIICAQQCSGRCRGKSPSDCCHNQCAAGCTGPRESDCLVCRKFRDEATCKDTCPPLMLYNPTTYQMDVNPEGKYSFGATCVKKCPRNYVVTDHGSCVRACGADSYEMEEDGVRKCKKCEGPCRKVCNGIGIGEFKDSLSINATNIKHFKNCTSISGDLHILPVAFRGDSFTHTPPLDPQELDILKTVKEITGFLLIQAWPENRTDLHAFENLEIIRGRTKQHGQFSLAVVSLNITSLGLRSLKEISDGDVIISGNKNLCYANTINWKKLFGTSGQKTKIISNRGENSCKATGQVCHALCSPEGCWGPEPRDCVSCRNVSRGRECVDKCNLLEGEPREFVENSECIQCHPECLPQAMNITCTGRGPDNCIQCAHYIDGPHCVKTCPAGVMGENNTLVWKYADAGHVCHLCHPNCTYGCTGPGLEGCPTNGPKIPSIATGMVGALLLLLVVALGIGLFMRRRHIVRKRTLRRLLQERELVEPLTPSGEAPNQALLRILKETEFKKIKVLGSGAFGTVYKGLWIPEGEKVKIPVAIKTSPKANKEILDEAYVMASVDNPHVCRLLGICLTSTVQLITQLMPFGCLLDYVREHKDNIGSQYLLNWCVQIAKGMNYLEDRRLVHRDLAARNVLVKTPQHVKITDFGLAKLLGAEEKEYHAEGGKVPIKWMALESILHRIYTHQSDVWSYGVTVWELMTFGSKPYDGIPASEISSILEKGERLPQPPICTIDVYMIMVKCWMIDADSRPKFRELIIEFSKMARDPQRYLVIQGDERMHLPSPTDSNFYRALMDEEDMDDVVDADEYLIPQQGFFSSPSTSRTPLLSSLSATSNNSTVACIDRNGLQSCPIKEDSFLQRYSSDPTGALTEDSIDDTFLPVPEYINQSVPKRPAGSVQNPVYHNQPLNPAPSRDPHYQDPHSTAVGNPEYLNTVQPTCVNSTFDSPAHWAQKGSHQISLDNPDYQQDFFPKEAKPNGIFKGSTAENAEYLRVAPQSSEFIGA
# Method: (§3) The PathScan® Phospho-EGF Receptor (Tyr1068) Sandwich ELISA Kit is a solid phase sandwich enzyme-linked immunosorbent assay (ELISA) that detects endogenous levels of phospho-EGF Receptor (Tyr1068) protein. […] NCI-H3255 cells were licensed from NCI. […] All cells were cultured according to ATCC recommendations. A549, NCI-H1975, PC9, and NCI-H3255 cells were grown in RPMI media (Invitrogen, Carlsbad, Calif.) supplemented with 10% FBS (Sigma, St Louis, Mo.), and with 1% Penn/Strep (Invitrogen).
# (§4) Each compound was prepared as a DMSO stock solution (10 mM). Compounds were tested in duplicate on each plate, with an 11-point serial dilution curve (1:3 dilution). Compound treatment (50 μL) was added from the compound dilution plate to the cell plate. […] Plates were then incubated for 2 hr at 37° C., 5% CO2. […] The wash was then flicked off and ice-cold lysis buffer was added to the cells (50 μL/well). The plate was shaken for 20-30 min at 4° C. to completely lyse the cells. Sample diluent (50 μL/well) was added to the ELISA plate, and the lysate (50 μL) was diluted into the sample diluent in each well of the ELISA plate. Plates were sealed and incubated overnight at 4° C. with shaking. The next day, wells were washed four times with 1× Wash Buffer; plates were taped on lint-free paper after the final wash prior to adding Add Detection Antibody (green, 100 μL/well) to each well and incubating for 1 hr at 37° C. After incubation, wells were washed as described. HRP-Linked secondary antibody (red, 100 μL/well) was added to each well and incubated for 30 min at 37° C. After incubation, the wells were washed as described. TMB Substrate (100 μL/well) was added to each well and the plate incubated for 10 min at 37° C. or 30 min at rt maximum. Stop Solution (100 μL/well) was added to each well at the end of the incubation and plates were shaken gently for a few seconds. […] Data were analyzed using a four-parameter fit in Microsoft Excel.
# [3] = target: T3, EGFR wildtype, endogenous (A549) (Homo sapiens, UniProt P00533); test: pEGFR Y1068 ELISA assay, A549 cells; conditions: inhibition of phosphorylation of EGFR at Tyr1068; A549 NSCLC cells; 2 hr compound incubation, then stimulated 10 min with EGF (40 ng/mL)
# T3 construct: A549 (EGFR wildtype, endogenous); host or cells: A549 (stimulated with EGF)
# T3 sequence (P00533 25-1210): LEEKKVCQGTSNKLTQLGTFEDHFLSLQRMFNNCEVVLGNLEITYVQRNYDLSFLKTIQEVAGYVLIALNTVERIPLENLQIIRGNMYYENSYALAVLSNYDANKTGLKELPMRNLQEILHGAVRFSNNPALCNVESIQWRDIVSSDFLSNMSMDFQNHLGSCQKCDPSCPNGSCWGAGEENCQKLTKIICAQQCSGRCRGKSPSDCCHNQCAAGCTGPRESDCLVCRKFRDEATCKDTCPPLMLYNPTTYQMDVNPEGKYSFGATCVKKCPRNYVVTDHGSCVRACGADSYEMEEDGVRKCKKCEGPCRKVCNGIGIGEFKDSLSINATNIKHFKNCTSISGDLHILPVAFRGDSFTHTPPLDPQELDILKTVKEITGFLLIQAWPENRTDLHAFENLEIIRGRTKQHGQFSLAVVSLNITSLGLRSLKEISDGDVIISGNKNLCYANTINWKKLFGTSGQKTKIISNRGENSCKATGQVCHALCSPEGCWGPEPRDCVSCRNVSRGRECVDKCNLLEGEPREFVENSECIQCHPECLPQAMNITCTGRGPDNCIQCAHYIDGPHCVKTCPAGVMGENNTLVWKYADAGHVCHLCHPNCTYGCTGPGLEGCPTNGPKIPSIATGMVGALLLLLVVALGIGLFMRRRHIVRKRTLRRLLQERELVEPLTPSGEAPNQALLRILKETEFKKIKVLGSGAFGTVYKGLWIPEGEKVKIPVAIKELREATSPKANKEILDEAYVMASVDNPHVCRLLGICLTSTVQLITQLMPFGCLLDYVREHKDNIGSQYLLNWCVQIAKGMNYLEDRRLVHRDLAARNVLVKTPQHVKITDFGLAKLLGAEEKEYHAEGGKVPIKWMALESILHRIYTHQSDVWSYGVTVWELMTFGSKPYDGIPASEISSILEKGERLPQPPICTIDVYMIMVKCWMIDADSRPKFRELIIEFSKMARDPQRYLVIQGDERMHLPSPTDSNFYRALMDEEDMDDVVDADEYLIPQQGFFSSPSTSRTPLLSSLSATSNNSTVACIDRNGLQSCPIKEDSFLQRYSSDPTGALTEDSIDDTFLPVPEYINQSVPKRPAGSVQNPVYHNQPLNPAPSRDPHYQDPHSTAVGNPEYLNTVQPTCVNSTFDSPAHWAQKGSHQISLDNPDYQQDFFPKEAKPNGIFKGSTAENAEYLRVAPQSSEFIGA
# Method: as §1, §2
# [4] = target: T4, EGFR del/T790M (PC9-DRH) (Homo sapiens, UniProt P00533, DEL746-750/T790M); test: pEGFR Y1068 ELISA assay, PC9-DRH cells; conditions: inhibition of phosphorylation of EGFR at Tyr1068; PC9-DRH cells (dacomitinib resistant); 2 hr compound incubation
# T4 construct: detects endogenous levels of phospho-EGF Receptor (Tyr1068) protein; endogenous in cells; host or cells: PC9-DRH (dacomitinib-resistant derivative of PC9, generated in house)
# T4 sequence (P00533 with tags, fused parts or gaps DEL746-750/T790M): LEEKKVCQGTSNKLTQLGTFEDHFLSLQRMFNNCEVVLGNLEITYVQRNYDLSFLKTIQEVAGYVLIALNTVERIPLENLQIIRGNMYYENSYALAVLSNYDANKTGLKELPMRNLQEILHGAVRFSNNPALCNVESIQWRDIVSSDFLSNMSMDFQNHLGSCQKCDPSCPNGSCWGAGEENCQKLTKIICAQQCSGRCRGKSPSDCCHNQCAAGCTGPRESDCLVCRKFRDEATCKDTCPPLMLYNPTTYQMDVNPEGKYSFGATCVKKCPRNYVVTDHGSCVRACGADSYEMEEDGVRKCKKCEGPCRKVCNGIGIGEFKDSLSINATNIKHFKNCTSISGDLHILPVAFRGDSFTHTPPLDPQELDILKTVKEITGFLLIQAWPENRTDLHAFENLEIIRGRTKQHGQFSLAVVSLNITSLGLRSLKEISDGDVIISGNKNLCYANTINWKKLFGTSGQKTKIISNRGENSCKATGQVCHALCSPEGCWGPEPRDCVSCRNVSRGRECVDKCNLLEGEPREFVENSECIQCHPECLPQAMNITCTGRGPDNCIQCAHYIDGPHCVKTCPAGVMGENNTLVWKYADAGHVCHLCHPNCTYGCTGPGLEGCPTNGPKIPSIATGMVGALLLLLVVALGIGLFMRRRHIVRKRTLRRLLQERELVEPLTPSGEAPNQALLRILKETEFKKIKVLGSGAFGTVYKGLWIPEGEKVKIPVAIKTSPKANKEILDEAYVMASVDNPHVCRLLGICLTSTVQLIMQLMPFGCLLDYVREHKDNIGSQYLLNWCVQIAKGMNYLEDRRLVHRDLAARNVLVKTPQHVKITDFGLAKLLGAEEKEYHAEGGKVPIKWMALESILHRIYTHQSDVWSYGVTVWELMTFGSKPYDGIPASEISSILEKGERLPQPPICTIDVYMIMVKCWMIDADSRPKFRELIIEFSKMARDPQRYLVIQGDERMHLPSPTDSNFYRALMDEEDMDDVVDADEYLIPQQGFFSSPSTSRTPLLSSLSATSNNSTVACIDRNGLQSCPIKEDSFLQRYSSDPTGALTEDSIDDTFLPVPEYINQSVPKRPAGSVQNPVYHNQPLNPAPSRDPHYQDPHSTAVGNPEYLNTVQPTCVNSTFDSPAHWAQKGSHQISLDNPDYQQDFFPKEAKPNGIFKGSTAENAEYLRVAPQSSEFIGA
# Method: as §3, §4
# T1 sequence (P00533 25-1210 T790M/L858R): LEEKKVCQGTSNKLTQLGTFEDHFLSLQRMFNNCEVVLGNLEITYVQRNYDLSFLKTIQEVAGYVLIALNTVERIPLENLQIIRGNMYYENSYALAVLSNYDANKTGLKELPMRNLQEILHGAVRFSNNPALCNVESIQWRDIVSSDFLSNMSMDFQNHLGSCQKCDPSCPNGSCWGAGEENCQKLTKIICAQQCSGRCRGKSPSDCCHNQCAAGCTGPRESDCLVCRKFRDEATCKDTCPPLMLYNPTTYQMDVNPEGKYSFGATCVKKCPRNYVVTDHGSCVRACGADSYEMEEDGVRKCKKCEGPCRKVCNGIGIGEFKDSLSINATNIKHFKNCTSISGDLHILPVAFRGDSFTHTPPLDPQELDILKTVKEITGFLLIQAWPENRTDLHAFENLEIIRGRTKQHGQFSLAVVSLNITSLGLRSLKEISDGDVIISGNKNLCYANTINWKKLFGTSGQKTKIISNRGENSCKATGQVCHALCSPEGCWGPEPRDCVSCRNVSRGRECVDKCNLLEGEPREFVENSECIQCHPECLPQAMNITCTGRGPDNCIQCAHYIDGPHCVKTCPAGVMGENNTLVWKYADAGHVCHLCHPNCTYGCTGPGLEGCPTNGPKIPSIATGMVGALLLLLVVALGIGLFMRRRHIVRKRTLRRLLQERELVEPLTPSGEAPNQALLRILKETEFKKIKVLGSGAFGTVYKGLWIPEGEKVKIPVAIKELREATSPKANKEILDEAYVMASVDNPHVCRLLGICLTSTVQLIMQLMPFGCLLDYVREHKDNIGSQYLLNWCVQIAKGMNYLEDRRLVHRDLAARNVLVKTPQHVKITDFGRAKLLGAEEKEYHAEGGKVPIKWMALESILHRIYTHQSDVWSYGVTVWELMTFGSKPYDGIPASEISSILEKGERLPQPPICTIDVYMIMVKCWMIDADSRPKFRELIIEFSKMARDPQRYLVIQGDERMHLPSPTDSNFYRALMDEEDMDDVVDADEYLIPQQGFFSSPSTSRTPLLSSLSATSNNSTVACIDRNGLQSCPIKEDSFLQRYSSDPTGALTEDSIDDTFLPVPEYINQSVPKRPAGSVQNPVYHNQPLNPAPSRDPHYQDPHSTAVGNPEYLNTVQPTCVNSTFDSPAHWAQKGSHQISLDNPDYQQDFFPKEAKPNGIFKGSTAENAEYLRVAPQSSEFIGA
SMILES,IC50 [1],IC50 [2],IC50 [3],IC50 [4]
"C=CC(=O)N[C@H]1CCN(c2nc(Nc3ccc(N4CCN(C)CC4)cc3)c3ncn(C)c3n2)C1 [Example 38, (S)-N-(1-(9-methyl-6-((4-(4-methylpiperazin-1-yl)phenyl)amino)-9H-purin-2-yl)pyrrolidin-3-yl)acrylamide]",0.015 µM,–,0.255 µM,0.006 µM
"C=CC(=O)N[C@H]1CCN(c2nc(Nc3ccc(N4CCN(C)CC4)cc3)c3ncn(C(C)(C)C)c3n2)C1 [Example 9, (S)-N-(1-(9-(tert-butyl)-6-((4-(4-methylpiperazin-1-yl)phenyl)amino)-9H-purin-2-yl)pyrrolidin-3-yl)acrylamide]",0.032 µM,–,2.74 µM,0.026 µM
"C=CC(=O)NC1(C)CN(c2nc(Nc3ccc(N4CCN(C)CC4)cc3)c3ncn(C(C)C)c3n2)C1 [Example 12, N-(1-(9-isopropyl-6-((4-(4-methylpiperazin-1-yl)phenyl)amino)-9H-purin-2-yl)-3-methylazetidin-3-yl)acrylamide]",0.006 µM,–,0.14 µM,0.01 µM
"C=CC(=O)N1C[C@@H]2CN(c3nc(Nc4cnn(C)c4)c4ncn(CC)c4n3)C[C@@H]2C1 [Example 16, 1-((cis)-5-(9-ethyl-6-((1-methyl-1H-pyrazol-4-yl)amino)-9H-purin-2-yl)hexahydropyrrolo[3,4-c]pyrrol-2(1H)-yl)prop-2-en-1-one]",0.088 µM,–,0.507 µM,0.091 µM
"C=CC(=O)NC1(C)CN(c2nc(Nc3cnn(C4CCN(C)C4)c3)c3ncn(C(C)C)c3n2)C1 (stereo not shown) [Example 44, N-(1-(9-isopropyl-6-((1-(1-methylpyrrolidin-3-yl)-1H-pyrazol-4-yl)amino)-9H-purin-2-yl)-3-methylazetidin-3-yl)acrylamide]",0.024 µM,–,1.15 µM,0.007 µM

# Further molecules by falling IC50 [1], results first:
IC50 [1],IC50 [2],IC50 [3],IC50 [4],SMILES
6.14 µM,6.65 µM,≥ 10 µM,2.13 µM,"C=CC(=O)N[C@@H]1CN(c2nc(Nc3cn(C)nc3C)c3ncn(C(C)C)c3n2)C[C@H]1F [Example 61, N-((3R,4R)-1-(6-((1,3-dimethyl-1H-pyrazol-4-yl)amino)-9-isopropyl-9H-purin-2-yl) -4-fluoropyrrolidin-3-yl)acrylamide]"
0.032 µM,–,4.57 µM,0.027 µM,"C=CC(=O)N1C[C@@H]2CN(c3nc(Nc4ccc(N5CCN(C)CC5)cc4)c4ncn(C(C)(C)C)c4n3)C[C@@H]2C1 [Example 18, 1-((cis)-5-(9-(tert-butyl)-6-((4-(4-methylpiperazin-1-yl)phenyl)amino)-9H-purin-2-yl)hexahydropyrrolo[3,4-c]pyrrol-2(1H)-yl)prop-2-en-1-one]"
0.026 µM,–,1.35 µM,0.038 µM,"C=CC(=O)NC1(C)CN(c2nc(Nc3cnn(CCN(C)C)c3)c3ncn(C(C)C)c3n2)C1 [Example 42, N-(1-(6-((1-(2-(dimethylamino)ethyl)-1H-pyrazol-4-yl)amino)-9-isopropyl-9H-purin-2-yl)-3-methylazetidin-3-yl)acrylamide]"
0.01 µM,–,0.194 µM,0.025 µM,"C=CC(=O)N1C[C@@H](F)[C@H](Nc2nc(Nc3ccc(N4CCN(C)CC4)cc3)c3ncn(C(C)C)c3n2)C1 (relative stereo) [Example 19, 1-((trans)-3-fluoro-4-((9-isopropyl-6-((4-(4-methylpiperazin-1-yl)phenyl)amino) -9H-purin-2-yl)amino)pyrrolidin-1-yl)prop-2-en-1-one]"
0.006 µM,–,0.039 µM,0.009 µM,"C=CC(=O)Nc1cccc(Oc2nc(Nc3ccc(N4CCN(C)CC4)cc3)c3ncn(C(C)C)c3n2)c1 [Example 22, N-(3-((9-isopropyl-6-((4-(4-methylpiperazin-1-yl)phenyl)amino)-9H-purin-2-yl)oxy)phenyl)acrylamide]"
